# From patent publication US20080021217A1, “HETEROCYCLIC INHIBITORS OF RHO KINASE” (priority 2006, published 2008)
# Structures can show the parent of a compound that is named as a salt.
# Tests used:
# [1] = target: T1, recombinant N-terminal GST-tagged human Rho kinase 2 (ROCK2, amino acids 1-552) (Homo sapiens, UniProt O75116); test: In vitro Rho kinase assay (luciferase-based ATP consumption), ROCK2; format: biochemical
# T1 construct: ROCK2, amino acids 1-552, Invitrogen Inc., cat #PV3759; GST (N); purchased Invitrogen Inc. PV3759
# Procedure: (§1) Rho kinase biochemical assays described below depend on firefly luciferase-based, indirect measurement of total ATP consumption by the kinase following incubation with substrate and ATP. 25 μl of Rho kinase assay buffer (20 mM Tris-HCL [pH 7.5], 1 mM MgCl2, 0.4 mM CaCl2, 0.15 mM EGTA, 0.1 mg/ml bovine serum albumin) containing 0.82 μg/ml of recombinant N-terminal GST-tagged human Rho kinase 1 (ROCK1, amino acids 1-535, Invitrogen Inc., cat. #PV-3691) or recombinant N-terminal GST-tagged human Rho kinase 2 (ROCK2, amino acids 1-552, Invitrogen Inc., cat #PV3759), 100 μg/ml S6 peptide substrate (related to amino acids 218-249 of the human 40S ribosomal protein S6, and suitable for ROCK1 or ROCK2, e.g. Upstate/Millipore Inc., cat #12-420), and 3 µM ATP are dispensed to wells of a 384 multi-well opaque plate. The plate is centrifuged for 30 seconds at approximately 200×g. 240 nl of test compound in DMSO is dispensed to each well by passive pin transfer. The lag phase of this in vitro kinase reaction permits addition of compounds soon after the reaction initiates. The reaction is allowed to incubate at 30° C. for 2 hours. The assay plates are sealed and maintained in a humidified environment. After 2 hours, 25 μl of easyLite protein kinase assay reagent (Perkin-Elmer, Inc.) is dispensed. After an additional 10 minute incubation at room temperature (about 22° C.), luminescence activity is measured on a Molecular Devices Analyst multi-mode plate reader or other suitable plate reader. Kinase inhibition results in less ATP consumption, and therefore increased luminescence signal. Negative control activity is measured with DMSO lacking any test compound. The positive control is 2-methyl-1-(4-methylisoquinolin-5-ylsulfonyl)perhydro-1,4-diazepine hydrochloride (aka H-1152P, HCl salt). Efficacy is measured as a percentage of positive control activity. […] In some cases, kinase reactions and compound testing are performed in 1536 multi-well plates under similar conditions, with assay volumes appropriately scaled. The designated NT means the cited example was not tested.
# [2] = target: T2, recombinant N-terminal GST-tagged human Rho kinase 1 (ROCK1, amino acids 1-535) (Homo sapiens, UniProt Q13464); test: In vitro Rho kinase assay (luciferase-based ATP consumption), ROCK1; format: biochemical
# T2 construct: ROCK1, amino acids 1-535, Invitrogen Inc., cat. #PV-3691; GST (N); purchased Invitrogen Inc. PV-3691
# Procedure: as §1
# [3] = test system: lasered (hypertensive) eyes of conscious cynomolgus monkeys; test: Acute IOP response in lasered (hypertensive) eyes of conscious cynomolgus monkeys; format: in vivo; settings: instilled in right eyes, IOP at 1, 3 and 6 hours; for Peak % Reduction in IOP vs. Control at 0.3%: compound at 0.3%; for Peak % Reduction in IOP vs. Control at 1.0%: compound at 1.0%
# From the text: Acute IOP Response in Lasered (Hypertensive) Eyes of Conscious Cynomolgus Monkeys
# Intraocular pressure (IOP) can be determined with an Alcon Pneumatonometer after light corneal anesthesia with 0.1% proparacaine. Eyes are washed with saline after each measurement. After a baseline IOP measurement, test compound is instilled in one […] aliquot to the right eyes only of nine cynomolgus monkeys. Vehicle is instilled in the right eyes of six additional animals. Subsequent IOP measurements are taken at 1, 3, and 6 hours, and peak reduction in IOP is reported below in Table 2 as percent of IOP lowering versus the control for each of the given concentrations of compound.
# A more detailed description of the assay used herein may be found in May et al., “Evaluation of the Ocular Hypotensive Response of Serotonin 5-HT1A and 5-HT2 Receptor Ligands in Conscious Ocular Hypertensive Cynomolgus Monkeys,” J. of Pharmacology and Experimental Therapeutics, vol. 306(1), pp. 301-309 (2003), the disclosure of which is hereby incorporated by reference as if written herein in its entirety.
# T1 sequence (O75116 1-552): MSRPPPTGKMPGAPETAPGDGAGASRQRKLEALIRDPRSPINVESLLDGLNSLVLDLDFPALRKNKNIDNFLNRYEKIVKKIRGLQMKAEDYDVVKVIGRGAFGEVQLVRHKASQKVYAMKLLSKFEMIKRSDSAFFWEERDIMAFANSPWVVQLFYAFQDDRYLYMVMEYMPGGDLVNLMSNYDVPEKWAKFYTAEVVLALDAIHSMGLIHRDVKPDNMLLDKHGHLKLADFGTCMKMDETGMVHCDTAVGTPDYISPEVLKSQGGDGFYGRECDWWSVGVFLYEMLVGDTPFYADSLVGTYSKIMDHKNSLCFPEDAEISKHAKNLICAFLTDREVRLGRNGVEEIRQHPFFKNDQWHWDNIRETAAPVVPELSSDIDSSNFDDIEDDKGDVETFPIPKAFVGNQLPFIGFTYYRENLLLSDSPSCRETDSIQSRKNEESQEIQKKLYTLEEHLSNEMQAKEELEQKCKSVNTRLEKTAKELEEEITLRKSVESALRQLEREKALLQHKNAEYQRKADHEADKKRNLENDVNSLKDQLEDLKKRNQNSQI
# T2 sequence (Q13464 1-535): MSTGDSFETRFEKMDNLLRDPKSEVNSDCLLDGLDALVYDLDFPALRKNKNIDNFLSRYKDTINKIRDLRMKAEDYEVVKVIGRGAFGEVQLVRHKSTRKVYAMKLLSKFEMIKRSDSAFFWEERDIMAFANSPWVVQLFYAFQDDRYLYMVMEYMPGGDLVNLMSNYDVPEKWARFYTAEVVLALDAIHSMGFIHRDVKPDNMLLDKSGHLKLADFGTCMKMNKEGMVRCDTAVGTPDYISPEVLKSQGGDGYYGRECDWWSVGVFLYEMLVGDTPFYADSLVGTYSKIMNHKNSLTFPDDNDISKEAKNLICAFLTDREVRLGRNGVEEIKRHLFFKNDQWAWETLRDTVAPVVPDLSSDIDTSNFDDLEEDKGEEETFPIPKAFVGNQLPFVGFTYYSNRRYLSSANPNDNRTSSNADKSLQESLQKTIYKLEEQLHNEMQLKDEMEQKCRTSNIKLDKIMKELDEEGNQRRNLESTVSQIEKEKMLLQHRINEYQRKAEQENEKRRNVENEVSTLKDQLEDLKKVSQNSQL
SMILES,IC50 [1],IC50 [2],Peak % Reduction in IOP vs. Control at 0.3% [3],Peak % Reduction in IOP vs. Control at 1.0% [3]
"O=C(NCc1nc(-c2ccncc2)c[nH]1)c1ccc(O)cc1O [Example 6, 2,4-dihydroxy-N-((4-(pyridin-4-yl)-1H-imidazol-2-yl)methyl)benzamide]",< 5 µM,< 5 µM,5.8%,
"Cc1cccc(C(=O)NCc2nc(-c3ccncc3)c[nH]2)c1O [Example 7, 2-hydroxy-3-methyl-N-((4-(pyridin-4-yl)-1H-imidazol-2-yl)methyl)benzamide]",< 5 µM,< 5 µM,11.0%,
"CC(C)C(=O)Oc1ccc(C(=O)NCc2nc(-c3ccncc3)n[nH]2)c(O)c1 [Example 35, 3-Hydroxy-4-((3-(pyridin-4-yl)-1H-1,2,4-triazol-5-yl)methylcarbamoyl)phenyl isobutyrate]",< 5 µM,< 5 µM,8.6%,
"CC(=O)Oc1ccc(C(=O)NCc2nc(-c3ccncc3)n[nH]2)c(O)c1 [Example 36, 3-Hydroxy-4-((3-(pyridin-4-yl)-1H-1,2,4-triazol-5-yl)methylcarbamoyl)phenyl acetate]",< 5 µM,< 5 µM,8.4%,
"O=C(NCc1nc(-c2ccncc2)n[nH]1)c1ccc(O)cc1O [Example 15, 2,4-dihydroxy-N-((3-(pyridin-4-yl)-1H-1,2,4-triazol-5-yl)methyl)benzamide]",< 5 µM,< 5 µM,14.9%,9.8%
"O=C(NCc1nc(-c2ccncc2)n[nH]1)c1ccc(O)cc1O [Ex. 15 HCl, 2,4-dihydroxy-N-((3-(pyridin-4-yl)-1H-1,2,4-triazol-5-yl)methyl)benzamide]",,,,8.8%
"O=C(NCc1nc(-c2ccncc2)n[nH]1)c1ccccc1O [Example 25, 2-hydroxy-N-((3-(pyridin-4-yl)-1H-1,2,4-triazol-5-yl)methyl)benzamide]",< 5 µM,< 5 µM,,
"Cc1ccc(C(=O)NCc2nc(-c3ccncc3)n[nH]2)s1 [Example 49, 5-Methyl-N-((3-(pyridin-4-yl)-1H-1,2,4-triazol-5-yl)methyl)thiophene-2-carboxamide]",< 5 µM,< 5 µM,,
"CS(=O)(=O)Nc1ccc(C(=O)NCc2nc(-c3ccncc3)n[nH]2)cc1 [Example 44, 4-(Methylsulfonamido)-N-((3-(pyridin-4-yl)-1H-1,2,4-triazol-5-yl)methyl)benzamide]",> 5 µM,> 5 µM,,
"Cc1ccc(C(=O)NCc2nc(-c3ccncc3)n[nH]2)c(O)c1 [Example 27, 2-hydroxy-4-methyl-N-((3-(pyridin-4-yl)-1H-1,2,4-triazol-5-yl)methyl) benzamide]",< 5 µM,< 5 µM,,
"COc1cccc(O)c1C(=O)NCc1nc(-c2ccncc2)n[nH]1 [Example 23, 2-hydroxy-6-methoxy-N-((3-(pyridin-4-yl)-1H-1,2,4-triazol-5-yl)methyl)benzamide]",< 5 µM,< 5 µM,,
O=C(NCc1c[nH]c(-c2ccncc2)n1)c1cccs1 [Example 14],> 5 µM,> 5 µM,,
"COc1ccc(C(=O)NCc2nc(-c3ccncc3)n[nH]2)cc1C [Example 40, 4-Methoxy-3-methyl-N-((3-(pyridin-4-yl)-1H-1,2,4-triazol-5-yl)methyl)benzamide]",> 5 µM,> 5 µM,,
"COc1cccc(C(=O)NCc2nc(-c3ccncc3)n[nH]2)c1 [Example 18, 3-methoxy-N-((3-(pyridin-4-yl)-1H-1,2,4-triazol-5-yl)methyl)benzamide]",> 5 µM,> 5 µM,,
"Cc1cccc(C(=O)NCc2nc(-c3ccncc3)n[nH]2)c1O [Example 22, 2-hydroxy-3-methyl-N-((3-(pyridin-4-yl)-1H-1,2,4-triazol-5-yl)methyl)benzamide]",< 5 µM,< 5 µM,11.1%,
"O=C(c1cccs1)N1CCn2nc(-c3ccncc3)nc2C1 [Example 62, (2-(Pyridin-4-yl)-5,6-dihydro-[1,2,4]triazolo[1,5-a]pyrazin-7(8H)-yl)(thiophen-2-yl)methanone]",> 5 µM,> 5 µM,,
"O=C(NCc1nc(-c2ccncc2)n[nH]1)c1ccc(O)cc1 [Example 28, 4-hydroxy-N-((3-(pyridin-4-yl)-1H-1,2,4-triazol-5-yl)methyl)benzamide]",< 5 µM,< 5 µM,,
"O=C(NCc1cc(-c2ccncc2)n[nH]1)c1ccc(O)cc1O [Example 9, 2,4-dihydroxy-N-((3-(pyridin-4-yl)-1H-pyrazol-5-yl)methyl)benzamide]",< 5 µM,< 5 µM,,
